Measurements published in US9012166B2, “Method for assaying histone methylation enzyme activity” (Kyushu Institute of Technology, priority 2010, dated 2015).
pIC50: −log10 of the molar value. Like-named read-outs stand apart in the source and are kept apart here.

Tests used:
Type in all cases: biochemical
[1] = target: T1, Set9 (His-Set9, His-Set7/9) (Homo sapiens, UniProt Q8WTS6); assay: Assay for measuring histone methyltransferase activity using peptidyl MCA, inhibitor evaluation with Set9
T1 sequence (Q8WTS6 1-366): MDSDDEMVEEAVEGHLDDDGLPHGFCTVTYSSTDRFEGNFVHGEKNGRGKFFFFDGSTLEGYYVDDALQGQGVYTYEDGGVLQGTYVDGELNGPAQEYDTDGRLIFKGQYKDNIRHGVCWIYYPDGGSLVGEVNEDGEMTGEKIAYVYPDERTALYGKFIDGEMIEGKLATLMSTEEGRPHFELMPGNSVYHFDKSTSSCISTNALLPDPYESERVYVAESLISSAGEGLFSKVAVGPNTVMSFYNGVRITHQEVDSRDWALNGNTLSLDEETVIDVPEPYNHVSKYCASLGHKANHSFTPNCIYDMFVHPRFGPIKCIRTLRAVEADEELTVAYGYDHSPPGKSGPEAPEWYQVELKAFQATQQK
Protocol: When Set9 was adopted as a histone methyltransferase, the following method was used. 10 μL of 2×HMT buffer (100 mM Tris-HCl (pH 8.5), 20 mM MgCl2, 40 mM KCl, 20 mM 2-mercaptoethanol, 500 mM sucrose), 0.4 μL of a BSA solution (150 μg/mL), 4.5 μL of His-Set9 (0, 2.25 μg/μL), 1 μL of gliotoxin (any of various concentrations) and 0.1 μL of distilled water were mixed and then incubated at room temperature for 1 hour. Then, 2 μL of SAM (10 mM) and 2 μL of a peptidyl MCA (Ac-p53 (369-372)-MCA) solution (0.6 mM) were added thereto, which was then incubated at 37° C. for 1 hour. Thereafter, 30 μL of a trypsin solution (20 mg/mL) was added thereto, followed by incubation at 37° C. for 15 minutes. Then, the fluorescence intensity of the solution was measured at an excitation wavelength (λex) of 390 nm and a fluorescence wavelength (λem) of 460 nm. The final concentration of His-Set9 during the measurement of fluorescence intensity was 0.5 μg/μL. […]
The rate of the inhibition of methylation by gliotoxin was calculated from the results in the left panel and the middle panel of FIG. 18. Specifically, the value (%) was calculated which was obtained by dividing “a value obtained by subtracting “the fluorescence intensity of AMC when peptidase was added but gliotoxin was not added” from “the fluorescence intensity of AMC when both peptidase and gliotoxin were added”” by “a value obtained by subtracting “the fluorescence intensity of AMC when peptidase was added but gliotoxin was not added” from “the fluorescence intensity of AMC when no peptidase or gliotoxin was added”” and multiplying the resultant value by 100. […]
When His-Set7/9 was adopted as a histone methyltransferase, the following method was used. […] Then, the fluorescence intensity of the solution was measured at an excitation wavelength (λex) of 330 nm and a fluorescence wavelength (λem) of 380 nm or at an excitation wavelength (λex) of 390 nm and a fluorescence wavelength (λem) of 460 nm. The final concentration of His-Set7/9 during the measurement of fluorescence intensity was 0 μg/μL or 0.05 μg/μL.

Set9 = target: T2, Set9 (Homo sapiens, UniProt Q8WTS6); assay: Western blot evaluation of histone methyltransferase inhibitor, Set9; conditions: FIG. 17
T2 sequence (Q8WTS6 1-366): T1 sequence (Q8WTS6 1-366)
Protocol: To examine whether the activity of a histone methyltransferase inhibitor could be evaluated by an assay for measuring histone methyltransferase activity using a peptidyl MCA, the assay for measuring histone methyltransferase activity was attempted. However, the activity of gliotoxin as a histone methyltransferase inhibitor was evaluated by Western blot, prior to the assay for measuring histone methyltransferase activity. Gliotoxin is known not to inhibit the methylation activity of Set9 but to inhibit the methylation activity of G9a. […] The following assay for measuring histone methyltransferase activity was carried out in order to examine whether the same results as those from the Western blot could also be obtained from the assay for measuring histone methyltransferase activity.

lysyl endopeptidase = lysyl endopeptidase (Achromobacter lyticus, UniProt P15636); assay: LC/MS analysis of reaction between substrate compound and lysyl endopeptidase; conditions: Example 3; 37° C., 15 minutes
lysyl endopeptidase, sequence (P15636 206-473 limits assumed, species assumed): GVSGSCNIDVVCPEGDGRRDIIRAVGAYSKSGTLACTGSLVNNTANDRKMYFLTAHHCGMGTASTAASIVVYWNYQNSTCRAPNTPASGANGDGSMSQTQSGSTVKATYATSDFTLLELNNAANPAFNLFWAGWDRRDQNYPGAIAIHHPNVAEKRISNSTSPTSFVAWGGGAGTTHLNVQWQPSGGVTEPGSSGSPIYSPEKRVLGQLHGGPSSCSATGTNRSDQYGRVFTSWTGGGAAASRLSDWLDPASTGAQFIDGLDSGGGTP
Protocol: Distilled water was added to 10 μL of 2×HMT buffer (100 mM Tris-HCl (pH 8.5), 20 mM MgCl2, 40 mM KCl, 20 mM 2-mercaptoethanol, 500 mM sucrose) and 1 μL of a BocLysMCA solution to adjust the total volume to 20 μL. To the resultant solution was added 30 μL of a peptidase solution (20 mg/mL trypsin or 20 mAU/mL lysyl endopeptidase), which was then mixed and incubated at 37° C. for 15 minutes. Then, the solution was applied to a liquid chromatograph mass spectrometer (LC/MS) for analysis. Analysis was performed by the same method as that for the above analysis except for using monomethylated BocLysMCA (i.e., “BocLys(Me)MCA”), dimethylated BocLysMCA (i.e., “BocLys(Me)2MCA”), or trimethylated BocLysMCA (i.e., “BocLys(Me)3MCA”) in place of BocLysMCA. Analysis was also carried out by the same method except for using, in place of the above-described peptidase solution, an equal volume of distilled water.

Compound	pIC50 ([1]; Example 8, Ac-p53 (369-372)-MCA, AMC fluorescence λex 390 nm/λem 460 nm, FIG. 18, read-out: IC50 for Set9)	pIC50 ([1]; Example 14, Ac-ERα(299-302)-MCA, AMC fluorescence λex 390 nm/λem 460 nm, left panel, read-out: IC50 for His-Set7/9)	pIC50 ([1]; Example 14, Ac-ERα(299-302)-MCA, peptidyl MCA fluorescence λex 330 nm/λem 380 nm, right panel of FIG. 28, read-out: IC50 for His-Set7/9)	inhibition of the methylation of Set9 (Western blot) (Set9)	hydrolysis by lysyl endopeptidase (LC/MS peaks) (lysyl endopeptidase)
CN1C(=O)[C@]23CC4=CC=C[C@H](O)[C@H]4N2C(=O)[C@@]1(CO)SS3 [gliotoxin]	< 4.00	< 4.00	< 4.00	did not inhibit	
Cc1cc(=O)oc2cc(NC(=O)C(CCCCN)NC(=O)OC(C)(C)C)ccc12 (centres unmarked) [BocLysMCA, Boc-K-MCA]					most BocLysMCA was hydrolyzed
